Data: the supplement of paper PMC13207355
Where a name gives a salt, the structure may show the parent alone.

Key:
Conditions in all cases: exposure time: 72 h
E13 [1] = patient-derived glioblastoma stem cells of classical subtype; assay: surviving fraction (nuclei count normalised to DMSO); higher = more cells surviving (less toxic)
E21 [2] = patient-derived glioblastoma stem cells of mesenchymal subtype; assay: as above
E28 [3] = patient-derived glioblastoma stem cells of classical subtype; assay: as above
E31 [4] = patient-derived glioblastoma stem cells of proneural subtype; assay: as above
E34 [5] = patient-derived glioblastoma stem cells of proneural subtype; assay: as above
E57 [6] = patient-derived glioblastoma stem cells of mesenchymal subtype; assay: as above
FT3469 [7] = normal neural stem cell line; assay: as above
E13 [8] = assay: phenotypic distance (Euclidean, principal components) from DMSO controls (arbitrary units); higher = stronger morphological change
E21 [9] = assay: as above
E28 [10] = assay: as above
E31 [11] = assay: as above
E34 [12] = assay: as above
E57 [13] = assay: as above
FT3469 [14] = assay: as above
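For phenotypic distance (Euclidean, principal components) from DMSO controls in this document: cell Painting imaging in 384-well plates, CellProfiler features reduced to at least 20 principal components, Euclidean distance versus same-plate DMSO vehicle wells (0.1% v/v), median over six images per well.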
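For surviving fraction (nuclei count normalised to DMSO) in this document: nuclei counted by high-content imaging of Hoechst-stained cells in laminin-coated 384-well plates, relative to 0.1% DMSO vehicle wells, with staurosporine as cell-death control.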

CCC[C@@H]1C[C@@H](C(=O)N[C@@H]([C@H]2O[C@H](SC)[C@H](O)[C@@H](O)[C@H]2O)[C@@H](C)O)N(C)C1 [Lincomycin hydrochloride]
Conditions | phenotypic distance | surviving fraction
E13 [1], 4.1 nM | – | 0.937
E13 [1], 12.3 nM | – | 0.912
E13 [1], 37 nM | – | 0.891
E13 [1], 111.1 nM | – | 0.967
E13 [1], 333.3 nM | – | 1.07
E13 [1], 1000 nM | – | 1.1
E13 [1], 3000 nM | – | 0.894
E13 [8], 4.1 nM | 0.648 | –
E13 [8], 12.3 nM | 0.534 | –
E13 [8], 37 nM | 0.423 | –
E13 [8], 111.1 nM | 0.641 | –
E13 [8], 333.3 nM | 0.442 | –
E13 [8], 1000 nM | 0.768 | –
E13 [8], 3000 nM | 0.427 | –
E21 [2], 4.1 nM | – | 0.94
E21 [2], 12.3 nM | – | 0.873
E21 [2], 37 nM | – | 0.963
E21 [2], 111.1 nM | – | 0.936
E21 [2], 333.3 nM | – | 0.972
E21 [2], 1000 nM | – | 0.984
E21 [2], 3000 nM | – | 0.94
E21 [9], 4.1 nM | 0.423 | –
E21 [9], 12.3 nM | 0.813 | –
E21 [9], 37 nM | 0.629 | –
E21 [9], 111.1 nM | 0.635 | –
E21 [9], 333.3 nM | 0.696 | –
E21 [9], 1000 nM | 0.667 | –
E21 [9], 3000 nM | 0.478 | –
E28 [3], 4.1 nM | – | 1.05
E28 [3], 12.3 nM | – | 1.04
E28 [3], 37 nM | – | 1.08
E28 [3], 111.1 nM | – | 0.956
E28 [3], 333.3 nM | – | 1.12
E28 [3], 1000 nM | – | 1.12
E28 [3], 3000 nM | – | 1.03
E28 [10], 4.1 nM | 0.634 | –
E28 [10], 12.3 nM | 0.929 | –
E28 [10], 37 nM | 1.11 | –
E28 [10], 111.1 nM | 0.703 | –
E28 [10], 333.3 nM | 0.726 | –
E28 [10], 1000 nM | 0.598 | –
E28 [10], 3000 nM | 0.576 | –
E31 [4], 4.1 nM | – | 1.03
E31 [4], 12.3 nM | – | 0.994
E31 [4], 37 nM | – | 1.03
E31 [4], 111.1 nM | – | 1.15
E31 [4], 333.3 nM | – | 1.1
E31 [4], 1000 nM | – | 1.21
E31 [4], 3000 nM | – | 0.936
E31 [11], 4.1 nM | 0.488 | –
E31 [11], 12.3 nM | 0.574 | –
E31 [11], 37 nM | 0.621 | –
E31 [11], 111.1 nM | 0.44 | –
E31 [11], 333.3 nM | 0.659 | –
E31 [11], 1000 nM | 0.74 | –
E31 [11], 3000 nM | 0.788 | –
E34 [5], 4.1 nM | – | 0.988
E34 [5], 12.3 nM | – | 0.937
E34 [5], 37 nM | – | 0.909
E34 [5], 111.1 nM | – | 1.09
E34 [5], 333.3 nM | – | 1.11
E34 [5], 1000 nM | – | 1.25
E34 [5], 3000 nM | – | 0.902
E34 [12], 4.1 nM | 0.57 | –
E34 [12], 12.3 nM | 0.706 | –
E34 [12], 37 nM | 0.876 | –
E34 [12], 111.1 nM | 1.02 | –
E34 [12], 333.3 nM | 0.802 | –
E34 [12], 1000 nM | 0.879 | –
E34 [12], 3000 nM | 0.674 | –
E57 [6], 4.1 nM | – | 1.09
E57 [6], 12.3 nM | – | 1.08
E57 [6], 37 nM | – | 0.957
E57 [6], 111.1 nM | – | 1.07
E57 [6], 333.3 nM | – | 0.959
E57 [6], 1000 nM | – | 0.997
E57 [6], 3000 nM | – | 0.976
E57 [13], 4.1 nM | 0.854 | –
E57 [13], 12.3 nM | 1.06 | –
E57 [13], 37 nM | 0.755 | –
E57 [13], 111.1 nM | 0.617 | –
E57 [13], 333.3 nM | 0.478 | –
E57 [13], 1000 nM | 0.463 | –
E57 [13], 3000 nM | 0.394 | –
FT3469 [7], 4.1 nM | – | 0.948
FT3469 [7], 12.3 nM | – | 0.951
FT3469 [7], 37 nM | – | 0.828
FT3469 [7], 111.1 nM | – | 1.15
FT3469 [7], 333.3 nM | – | 1.1
FT3469 [7], 1000 nM | – | 1.08
FT3469 [7], 3000 nM | – | 1.08
FT3469 [14], 4.1 nM | 0.783 | –
FT3469 [14], 12.3 nM | 0.977 | –
FT3469 [14], 37 nM | 0.592 | –
FT3469 [14], 111.1 nM | 0.704 | –
FT3469 [14], 333.3 nM | 0.658 | –
FT3469 [14], 1000 nM | 1.03 | –
FT3469 [14], 3000 nM | 0.496 | –

C[C@H]1Oc2cc(cnc2N)-c2c(nn(C)c2C#N)CN(C)C(=O)c2ccc(F)cc21 [Lorlatinib]
Conditions | phenotypic distance | surviving fraction
E13 [1], 4.1 nM | – | 1.03
E13 [1], 12.3 nM | – | 0.961
E13 [1], 37 nM | – | 1.08
E13 [1], 111.1 nM | – | 1.08
E13 [1], 333.3 nM | – | 1.11
E13 [1], 1000 nM | – | 1
E13 [1], 3000 nM | – | 1.01
E13 [8], 4.1 nM | 0.964 | –
E13 [8], 12.3 nM | 0.749 | –
E13 [8], 37 nM | 1.19 | –
E13 [8], 111.1 nM | 0.958 | –
E13 [8], 333.3 nM | 0.954 | –
E13 [8], 1000 nM | 1.09 | –
E13 [8], 3000 nM | 0.943 | –
E21 [2], 4.1 nM | – | 0.887
E21 [2], 12.3 nM | – | 0.918
E21 [2], 37 nM | – | 0.876
E21 [2], 111.1 nM | – | 0.918
E21 [2], 333.3 nM | – | 0.862
E21 [2], 1000 nM | – | 0.924
E21 [2], 3000 nM | – | 0.768
E21 [9], 4.1 nM | 0.926 | –
E21 [9], 12.3 nM | 2.32 | –
E21 [9], 37 nM | 1.09 | –
E21 [9], 111.1 nM | 0.89 | –
E21 [9], 333.3 nM | 1.37 | –
E21 [9], 1000 nM | 1.41 | –
E21 [9], 3000 nM | 1.96 | –
E28 [3], 4.1 nM | – | 1.11
E28 [3], 12.3 nM | – | 1.02
E28 [3], 37 nM | – | 1.05
E28 [3], 111.1 nM | – | 0.843
E28 [3], 333.3 nM | – | 0.913
E28 [3], 1000 nM | – | 1.07
E28 [3], 3000 nM | – | 0.911
E28 [10], 4.1 nM | 1.06 | –
E28 [10], 12.3 nM | 0.784 | –
E28 [10], 37 nM | 1.27 | –
E28 [10], 111.1 nM | 1.47 | –
E28 [10], 333.3 nM | 1.29 | –
E28 [10], 1000 nM | 1.31 | –
E28 [10], 3000 nM | 1.79 | –
E31 [4], 4.1 nM | – | 1.23
E31 [4], 12.3 nM | – | 0.867
E31 [4], 37 nM | – | 1.06
E31 [4], 111.1 nM | – | 0.986
E31 [4], 333.3 nM | – | 1.17
E31 [4], 1000 nM | – | 1.08
E31 [4], 3000 nM | – | 1.01
E31 [11], 4.1 nM | 0.873 | –
E31 [11], 12.3 nM | 1.38 | –
E31 [11], 37 nM | 2.47 | –
E31 [11], 111.1 nM | 0.874 | –
E31 [11], 333.3 nM | 1.08 | –
E31 [11], 1000 nM | 1.32 | –
E31 [11], 3000 nM | 1.4 | –
E34 [5], 4.1 nM | – | 1.02
E34 [5], 12.3 nM | – | 0.994
E34 [5], 37 nM | – | 0.939
E34 [5], 111.1 nM | – | 1.09
E34 [5], 333.3 nM | – | 0.999
E34 [5], 1000 nM | – | 1.1
E34 [5], 3000 nM | – | 0.792
E34 [12], 4.1 nM | 0.575 | –
E34 [12], 12.3 nM | 0.814 | –
E34 [12], 37 nM | 1.28 | –
E34 [12], 111.1 nM | 0.761 | –
E34 [12], 333.3 nM | 1.2 | –
E34 [12], 1000 nM | 0.726 | –
E34 [12], 3000 nM | 1.84 | –
E57 [6], 4.1 nM | – | 0.87
E57 [6], 12.3 nM | – | 0.808
E57 [6], 37 nM | – | 0.891
E57 [6], 111.1 nM | – | 0.816
E57 [6], 333.3 nM | – | 0.815
E57 [6], 1000 nM | – | 0.794
E57 [6], 3000 nM | – | 0.757
E57 [13], 4.1 nM | 2.11 | –
E57 [13], 12.3 nM | 3.34 | –
E57 [13], 37 nM | 2.79 | –
E57 [13], 111.1 nM | 3.21 | –
E57 [13], 333.3 nM | 2.46 | –
E57 [13], 1000 nM | 2.74 | –
E57 [13], 3000 nM | 2.66 | –
FT3469 [7], 4.1 nM | – | 0.89
FT3469 [7], 12.3 nM | – | 1.1
FT3469 [7], 37 nM | – | 0.999
FT3469 [7], 111.1 nM | – | 0.981
FT3469 [7], 333.3 nM | – | 1.03
FT3469 [7], 1000 nM | – | 1.06
FT3469 [7], 3000 nM | – | 0.834
FT3469 [14], 4.1 nM | 1.48 | –
FT3469 [14], 12.3 nM | 0.861 | –
FT3469 [14], 37 nM | 1.31 | –
FT3469 [14], 111.1 nM | 0.981 | –
FT3469 [14], 333.3 nM | 1.15 | –
FT3469 [14], 1000 nM | 0.901 | –
FT3469 [14], 3000 nM | 1.54 | –
